Molecules are shown by their SMILES.

On to `CCCN1CCN(CCCOc2cc3ncc(C#N)c(Nc4cc(OC)c(Cl)cc4Cl)c3cc2OC)CC1`, for which the melting point – broadly, the temperature, or range, at which the solid turns liquid – lay in the range of 97 to 101 °C.

`CC(=O)c1ccc(OC(C)c2ccnc3ncnn23)cc1` (stereo not drawn): the melting point fell in the range of 136 to 138 °C.

With `CC(C)(NC(=O)CCn1ccnc1)c1ccc(Cl)cc1`, the melting point fell in the range of 154 to 155 °C.

Take `CCCCCCCCCc1cnc(-c2ccc(C(=O)OC)cc2)nc1`: the melting point worked out at 61.7 °C.

In turn, `FC(F)(F)c1n[nH]c2ccccc12` registered a melting point of 104 °C.

Regarding `CCCCCCCCCCOc1ccc(CO)cc1`, the melting point is 54 to 55 °C.

In turn, `Cc1cc(SCc2ccc3cn(-c4ccc(C(F)(F)F)cc4)nc3c2)ccc1OCC(=O)O` had a melting point of 142 to 144 °C.

On to `c1ccc(C(Nn2cncn2)c2ccccc2)cc1`, for which the melting point was in the range of 142 to 145 °C.

Regarding `CCOC(=O)c1cn(CC)c2oc(CN3CCOCC3)cc2c1=O`, the melting point was in the range of 229 to 231 °C.

`N#Cc1c(N2CCCCC2)cc(-c2ccccc2)c2c1C(=O)c1ccccc1-2` had a melting point of 220 to 222 °C.

Turning to `CCCCCCCCCCN=C1SC(=CC(=O)O)C(=O)N1CCCCCCCCCC`, the melting point is 68 to 69 °C.

On to `CC#CCC(CC#CC)(C(=O)O)S(=O)(=O)c1ccc(OC)cc1`, for which the melting point fell in the range of 141 to 143 °C.

In turn, `Cc1[nH]nc(Oc2ccc([N+](=O)[O-])cc2C(F)(F)F)c1C` registered a melting point of 97 to 99 °C.

The molecule `CCOc1cccc(COc2ccc3c(c2)C=C(C(=O)Nc2ccc(CN(C)C4CCOCC4)cc2)CCS3(=O)=O)c1` had a melting point of 189 to 192 °C.

With `Cc1cccc2sc(-n3nc(CCCO)cc3-c3ccc(Cl)cc3)nc12`, the melting point lay within 112 to 114 °C.

In turn, `O=C1Cc2cc(CCN3CCN(c4nsc5ccccc45)CC3)ccc2N1` yielded a melting point of 288 °C.

`CN1C(=O)C(C(=O)Nc2ccc(Oc3ncc(Cl)cc3Cl)cc2)C(=O)N(C)C1=O` returned a melting point of 234 to 235 °C.

`N#Cc1cc([N+](=O)[O-])ccc1OC12CC3CC(CC(C3)C1)C2` yielded a melting point of 187 to 189 °C.

For the molecule `COc1ccc2[nH]cc(/C(C#N)=C/c3cccc(C(N)=O)c3)c2c1`, the melting point amounted to 234 °C.

`Cc1oc(-c2ccccc2)nc1CCC(O)c1ccc(CC2OC(=O)NC2=O)cc1` (stereo not drawn) gave a melting point of 154 to 155 °C.

`CN(Cc1cccc2c1C(=O)N(C1CCC(=O)NC1=O)C2=O)C(=O)Nc1ccc(Cl)c(Cl)c1` (stereo not drawn) had a melting point of 255 to 257 °C.

In turn, `COC(=S)NC[C@H]1CN(c2cc(F)c(N3CNC(=O)C3)c(F)c2)C(=O)O1` registered a melting point of 199 °C.

Take `Nc1ncccc1OCc1ccccc1Br`: the melting point lay in the range of 99 to 100 °C.

For the molecule `CC(C)N(C(=O)c1ccc(CN2CCOc3cnccc32)c(Br)c1)C1CCCCC1`, the melting point lay within 191 to 192 °C.

Consider `COC(=O)CCC#Cc1cccc(Br)n1`, for which the melting point lay within 59 to 61 °C.

The molecule `CCCCCCC(C(=O)O)c1cccc(Oc2ccccc2C)c1O` (stereo not drawn) registered a melting point of 65 to 66 °C.

With `CS(=O)c1ccc(-c2nn(Cc3cccnc3)c(=O)cc2-c2ccc(Cl)cc2)cc1` (stereo not drawn), the melting point stood at 155 °C.

With `COc1cc2c3c(c1OC)CN(C)CC3Cc1cc3c(cc1-2)OCO3` (stereo not drawn), the melting point lay within 169 to 172 °C.

The molecule `C/C(Cl)=C/CC(C(=O)O)C(=O)O` displayed a melting point of 95 to 97 °C.

For the molecule `CCCCNC[C@@H](O)[C@H](Cc1ccccc1)NC(=O)OCc1ccccc1`, the melting point fell in the range of 118 to 120 °C.

`CCCn1c(=S)[nH]c(=S)c2[nH]c(C3CC3)nc21`: the melting point was above 245 °C.

`CCCNC(=O)c1nc(-c2ccccc2)c(-c2ccc(=O)n(Cc3ccccc3)n2)s1` registered a melting point of 120 to 121 °C.

Turning to `CCOC(=O)N1CCN(C2=Nc3ccccc3Cc3ccccc32)CC1`, the melting point lay in the range of 137 to 138 °C.

In the case of `COC(=O)Cc1csc(NS(=O)(=O)c2cccc(Cl)c2C)n1`, the melting point came out at 187 °C.

Consider `CC(=O)Nc1ccc(C(=S)N2CCCCC2)cc1`, for which the melting point is 202 to 203 °C.

In the case of `Cc1nc(S)nn1-c1ccc([N+](=O)[O-])cc1`, the melting point stood at 202 °C.

Molecule `CC1(C)OCC(COc2ccc(-c3ccc4cc(C(=O)O)ccc4c3)cc2C23CC4CC(CC(C4)C2)C3)O1` (stereo not drawn) displayed a melting point of 287 °C.

In turn, `CCN(C(=O)Cc1ccc(S(C)(=O)=O)cc1)C1CCN(C(=O)OC(C)(C)C)CC1` returned a melting point of 138 to 140 °C.

As to `O=C1Cc2cc(-c3cccc(Cl)c3)ccc2N1`, the melting point is 169 to 171 °C.

As to `Oc1cccc(-c2c(-c3ccccc3F)cnc3c(C(F)(F)F)cccc23)c1`, the melting point lay within 186 to 187 °C.

In turn, `CC(=O)SCC(=O)NC(=O)Cc1ccccc1` displayed a melting point of 153 to 155 °C.

On to `CON=C(C(=O)OC)c1ccccc1COc1ccc2c(c1)OCC2=O`, for which the melting point was in the range of 134 to 137 °C.

For the molecule `CCn1nnnc1C(C=O)=C(c1ccc(F)cc1)c1ccc(F)cc1`, the melting point lay within 144 to 145 °C.

As to `CCc1nc2c(cnn2CC)c(NC2CCOCC2)c1CNC(=O)c1cccc(C(=O)NCc2ccc(C)c(Br)c2)c1`, the melting point is 175 to 176 °C.

In turn, `CC(C)(C=C(Cl)Cl)C(=O)Nc1ccc(Cl)cc1` registered a melting point of 131 to 134 °C.

The molecule `CN1C(=O)C(NC(=O)Nc2ccc([N+](=O)[O-])cc2)N=C(c2ccccc2)c2ccccc21` (stereo not drawn) registered a melting point of 292 to 293 °C.

Take `Nc1cc(OCc2ccccc2)ccc1NC(=O)c1ccc(C23CC4CC(CC(C4)C2)C3)c(OCc2ccccc2)c1`: the melting point stood at 178 °C.

Regarding `COc1cc(C(=O)NCc2ccc(N)cc2)cc(OC)c1OC(C)=O`, the melting point fell in the range of 47 to 48 °C.

Molecule `O=C(Cc1ccc([N+](=O)[O-])cc1)c1c(O)c2cccnc2n(-c2ccccc2)c1=O` yielded a melting point of 223 to 227 °C.

As to `O=C(CC(=O)c1ccc(O)cc1O)c1ccc(OCc2ccccc2)c(OCc2ccccc2)c1`, the melting point was 245 to 247 °C.

Molecule `COC(=O)c1cc(O)nn1Cc1ccc(Cl)cc1Cl` yielded a melting point of 222 to 223 °C.

As to `CC1(COc2ccc(S(=O)(=O)C3SC(=O)NC3=O)cc2)CCCCC1` (stereo not drawn), the melting point fell in the range of 174 to 175 °C.

`COc1ccc(C(O)(c2ccc(OC)cc2)C(O)(c2ccccc2)c2ccccc2)cc1` came in with a melting point of 163 to 165 °C.

Regarding `COc1cccc(C(=O)c2sccc2Br)c1`, the melting point was determined as 40 °C.

`CS(=O)(=O)c1ccc(-c2sc(COc3ccc(Cl)cc3)nc2-c2ccc(F)cc2)cc1` showed a melting point of 140 to 143 °C.

As to `O=c1oc(/C=C/c2ccc(OC(F)F)c(OC(F)F)c2)nc2ccccc12`, the melting point was in the range of 113 to 115 °C.

Consider `CSc1cnnc(Cl)c1`, for which the melting point fell in the range of 98 to 100 °C.

In the case of `Nc1cccc(CN2C(=O)[C@H]3CCC[C@H]3Nc3ccccc32)c1` (relative stereo), the melting point fell in the range of 176 to 178 °C.

`CCc1nc2c(N)nc3cc(OCCN(C(N)=O)C(C)C)ccc3c2n1CC1CCOCC1`: the melting point lay in the range of 223 to 225 °C.

With `CC(C)c1nc(O)cc(=O)n1C`, the melting point was determined as 159 °C.

The molecule `CCCCc1nc2c(c(C)c(C)n3nnnc23)n1CC(C)(C)NS(C)(=O)=O` returned a melting point of 75 to 90 °C.

`COc1ccccc1NC(=O)Nc1nc(Nc2ccccc2-c2ccccc2)nc(N2CCC(C(=O)O)CC2)n1`: the melting point lay within 130 to 135 °C.

The molecule `C1CC1Nc1nc(NC2CC2)nc(NC2CC2)n1` showed a melting point of 75 to 77 °C.

The molecule `O=C(C1CC1)N1CC[C@H](c2ccccc2)[C@H](O)C1` (relative stereo) gave a melting point of 128 to 129 °C.

`CCNC(=O)N1N=C(c2ccc([N+](=O)[O-])cc2)c2cc(Cl)ccc2CC1C` (stereo not drawn) yielded a melting point of 170 to 172 °C.

For the molecule `CC(=O)Nc1ccc(C(=O)c2cc(-c3ccc(NC(C)=O)cc3)c(N3CCOCC3)s2)cc1`, the melting point came out at 152 °C.

In turn, `CNc1nnc(-c2cc3c(Oc4ccc(Cl)cc4)cncc3s2)s1` registered a melting point of 226 to 229 °C.

Molecule `COC(=O)c1cc(O)cc(C(=O)CS(C)=O)c1` (stereo not drawn) yielded a melting point of 144 to 150 °C.

As to `CCCCN1CCC[C@H]1CNC(=O)c1cc(Cl)cc2c1OC(C)(C)CN2C`, the melting point lay within 110 to 112 °C.

Take `O=Cc1ccc(OCCBr)cc1`: the melting point was 49.5 to 50 °C.

The molecule `CCn1c(=O)c2cc(C(=O)O)cn2c2cc(Cl)ccc21` displayed a melting point of 322 to 326 °C.

Molecule `Cc1cc(-c2ccc(C(F)(F)F)cc2)cc(-c2ccnc(-c3ccc(S(N)(=O)=O)s3)c2)n1` showed a melting point above 250 °C.

Turning to `CC(=O)OCC(=O)C1(OC(C)=O)CCC2C3CCC4=CC(=O)C=CC4(C)C3C(O)CC21C` (stereo not drawn), the melting point turned out to be 99.5 °C.

In the case of `C#CCn1c(-c2cccnc2)c(C)c2ccccc21`, the melting point is 104 to 105 °C.

The molecule `O=C(CCCCO)NCC1Cc2ccccc2Cc2ccccc21` (stereo not drawn) displayed a melting point of 96 to 98 °C.

For the molecule `O=C(O)c1ccc(-c2ccnc(-c3cc(-c4ccc(C(=O)O)s4)ccn3)c2)s1`, the melting point was above 300 °C.

With `CCN(CC)C(=O)CCc1nc(-c2ccccc2Cl)nc2ccccc12`, the melting point came to 90 °C.

`CC(C)c1n[nH]c2c(NCc3ccccc3)nc(NCCN)nc12` came in with a melting point of 145 to 147 °C.

`COCCN1CCc2ccc(Nc3ncc(Cl)c(N[C@@H]4CCC[C@H]4NS(C)(=O)=O)n3)cc2CC1` (relative stereo) gave a melting point of 74 °C.

For the molecule `O=C(O)CC(O)(Cn1cncn1)c1ccc(F)cc1F` (stereo not drawn), the melting point lay in the range of 185 to 187 °C.

The molecule `COC(=O)CNC(=O)c1cccc(NC(=O)CCl)c1` returned a melting point of 122 to 124 °C.

For the molecule `Cc1cccc(-c2n[nH]cc2-c2ccc(F)c(-c3cnc(C(C)(C)O)s3)c2)n1`, the melting point was 208 to 210 °C.

Take `N#Cc1cc(O)c(O)c(O)c1`: the melting point turned out to be 219 °C.

Turning to `Cc1ccccc1-c1cn(C)cc(-c2ccc(Cl)c(Cl)c2)c1=O`, the melting point is 103 to 106 °C.

The molecule `O=C(C1CCN(S(=O)(=O)c2ccc(Br)cc2)CC1)N1CCC(c2ccncc2)CC1` showed a melting point of 154 to 155 °C.

On to `O=C1c2ccccc2S(=O)(=O)N1/C=C/CSc1nnnn1-c1ccccc1`, for which the melting point was 191 to 193 °C.

In turn, `Cn1nc(C(F)(F)F)c(C=O)c1O` yielded a melting point of 116 to 118 °C.

On to `O=C(Nc1ccc2c(c1)OCO2)c1ccc([N+](=O)[O-])cc1`, for which the melting point lay in the range of 231 to 234 °C.

These data come from a melting point compilation (Tetko et al.; mined from patent text by program, amines drawn as free bases though some values may be those of a salt).
